What was measured:
[1] = Drug distribution in C57BL/6 mouse skeletal muscle 10 mg/kg, po and measured at 2 hrs post dose by LC-MS/MS analysis; format: ADME, organism-based, Skeletal muscle tissue; conditions: read-out: Ct
[2] = Apparent permeability across apical to basolateral side in MDCK cells at 2.5 uM for 90 mins; format: ADME, cell-based, Canis lupus familiaris; conditions: dog
[3] = Drug distribution in C57BL/6 mouse adipose tissue 10 mg/kg, po and measured at 1 hrs post dose by LC-MS/MS analysis; format: ADME, organism-based; conditions: read-out: Ct
[4] = Metabolic stability in human liver microsomes assessed as parent compound remaining at 1 uM and measured at 30 mins by LC-MS/MS analysis; format: ADME, Microsome; conditions: read-out: Stability
[5] = Half life in Wistar rat at 3 mg/kg, iv or 10 mg/kg, po and measured up to 24 hrs by LC-MS/MS analysis; format: ADME, organism-based; conditions: in vivo
[6] = Drug distribution in C57BL/6 mouse skeletal muscle 10 mg/kg, po and measured at 8 hrs post dose by LC-MS/MS analysis; format: ADME, organism-based, Skeletal muscle tissue; conditions: read-out: Ct
[7] = Drug distribution in C57BL/6 mouse plasma 10 mg/kg, po and measured at 1 hrs post dose by LC-MS/MS analysis; format: ADME, organism-based
[8] = Drug distribution in C57BL/6 mouse adipose tissue 10 mg/kg, po and measured at 8 hrs post dose by LC-MS/MS analysis; format: ADME, organism-based; conditions: read-out: Ct
[9] = Drug distribution in C57BL/6 mouse liver 10 mg/kg, po and measured at 8 hrs post dose by LC-MS/MS analysis; format: ADME, organism-based; conditions: read-out: Ct
[10] = Drug distribution in C57BL/6 mouse plasma 10 mg/kg, po and measured at 8 hrs post dose by LC-MS/MS analysis; format: ADME, organism-based
[11] = Metabolic stability in rat liver microsomes assessed as parent compound remaining at 1 uM and measured at 30 mins by LC-MS/MS analysis; format: ADME, Microsome; conditions: read-out: Stability
[12] = Drug distribution in C57BL/6 mouse brain 10 mg/kg, po and measured at 1 hrs post dose by LC-MS/MS analysis; format: ADME, organism-based; conditions: read-out: Ct
[13] = Tmax in C57BL/6 mouse at 3 mg/kg, iv or 10 mg/kg, po and measured up to 24 hrs by LC-MS/MS analysis; format: ADME, organism-based; conditions: in vivo
hERG (KCNH2) = hERG (KCNH2) (Homo sapiens, UniProt Q12809); assay: Displacement of [3H]astemizole from human ERG expressed in HEK293 cell membrane at 30 uM for 2 hrs by Radiometric displacement assay; format: toxicity; conditions: HEK293 cell membranes that express hERG, probe [3H]astemizole
[14] = AUC in Wistar rat at 3 mg/kg, iv or 10 mg/kg, po and measured up to 24 hrs by LC-MS/MS analysis; format: ADME, organism-based; set-up: dose 3 mg/kg, time < 24 hrs, route iv; conditions: in vivo
[15] = Cmax in Wistar rat at 3 mg/kg, iv or 10 mg/kg, po and measured up to 24 hrs by LC-MS/MS analysis; format: ADME, organism-based; set-up: dose 3 mg/kg, time < 24 hrs, route iv; conditions: in vivo
[16] = Oral bioavailability in C57BL/6 mouse 10 mg/kg or 3 mg/kg, iv and measured up to 24 hrs by LC-MS/MS analysis; format: ADME, organism-based; conditions: in vivo
[17] = Drug distribution in C57BL/6 mouse liver 10 mg/kg, po and measured at 2 hrs post dose by LC-MS/MS analysis; format: ADME, organism-based; conditions: read-out: Ct
[18] = Metabolic stability in mouse liver microsomes assessed as parent compound remaining at 1 uM and measured at 30 mins by LC-MS/MS analysis; format: ADME, Microsome; conditions: read-out: Stability
[19] = Tmax in Wistar rat at 3 mg/kg, iv or 10 mg/kg, po and measured up to 24 hrs by LC-MS/MS analysis; format: ADME, organism-based; conditions: in vivo
[20] = Clearance in C57BL/6 mouse at 3 mg/kg, iv or 10 mg/kg, po and measured up to 24 hrs by LC-MS/MS analysis; format: ADME, organism-based; conditions: in vivo
[21] = Volume of distribution at steady state in Wistar rat at 3 mg/kg, iv or 10 mg/kg, po and measured up to 24 hrs by LC-MS/MS analysis; format: ADME, organism-based; conditions: in vivo, read-out: Vdss
[22] = Cmax in C57BL/6 mouse at 3 mg/kg, iv or 10 mg/kg, po and measured up to 24 hrs by LC-MS/MS analysis; format: ADME, organism-based; set-up: dose 3 mg/kg, time < 24 hrs, route iv; conditions: in vivo
[23] = Drug distribution in C57BL/6 mouse skeletal muscle 10 mg/kg, po and measured at 1 hrs post dose by LC-MS/MS analysis; format: ADME, organism-based, Skeletal muscle tissue; conditions: read-out: Ct
[24] = Drug distribution in C57BL/6 mouse adipose tissue 10 mg/kg, po and measured at 2 hrs post dose by LC-MS/MS analysis; format: ADME, organism-based; conditions: read-out: Ct
[25] = Plasma protein binding in mouse; format: ADME, cell-free; conditions: read-out: PPB (converted)
CYP2D6 = CYP2D6 (Homo sapiens, UniProt P10635); assay: Inhibition of recombinant human CYP2D6 at 25 uM by fluorescence plate reader analysis; format: ADME
[26] = Oral bioavailability in Wistar rat at 10 mg/kg or 3 mg/kg, iv and measured up to 24 hrs by LC-MS/MS analysis; format: ADME, organism-based; conditions: in vivo
[27] = Clearance in Wistar rat at 3 mg/kg, iv or 10 mg/kg, po and measured up to 24 hrs by LC-MS/MS analysis; format: ADME, organism-based; conditions: in vivo
[28] = AUC in C57BL/6 mouse at 3 mg/kg, iv or 10 mg/kg, po and measured up to 24 hrs by LC-MS/MS analysis; format: ADME, organism-based; set-up: time < 24 hrs, dose 3 mg/kg, route iv; conditions: in vivo
[29] = Half life in C57BL/6 mouse at 3 mg/kg, iv or 10 mg/kg, po and measured up to 24 hrs by LC-MS/MS analysis; format: ADME, organism-based; conditions: in vivo
[30] = Plasma protein binding in rat; format: ADME, cell-free; conditions: read-out: PPB
[31] = Volume of distribution at steady state in C57BL/6 mouse at 3 mg/kg, iv or 10 mg/kg, po and measured up to 24 hrs by LC-MS/MS analysis; format: ADME, organism-based; conditions: in vivo, read-out: Vdss
[32] = Drug distribution in C57BL/6 mouse liver 10 mg/kg, po and measured at 1 hrs post dose by LC-MS/MS analysis; format: ADME, organism-based; conditions: read-out: Ct
[33] = Drug distribution in C57BL/6 mouse plasma 10 mg/kg, po and measured at 2 hrs post dose by LC-MS/MS analysis; format: ADME, organism-based
[34] = biological target: T1, Diacylglycerol O-acyltransferase 1 (Homo sapiens, UniProt O75907); assay: Inhibition of human DGAT1 in serum starved HEK293 cells assessed as inhibition of triglyceride synthesis incubated for 20 mins followed by 13C-addition of 13C-oleic acid pre-complexed with BSA for 120 mins by LC-MS-based mass spectrophotometric analysis; format: cell-based
T1 sequence (O75907 whole entry): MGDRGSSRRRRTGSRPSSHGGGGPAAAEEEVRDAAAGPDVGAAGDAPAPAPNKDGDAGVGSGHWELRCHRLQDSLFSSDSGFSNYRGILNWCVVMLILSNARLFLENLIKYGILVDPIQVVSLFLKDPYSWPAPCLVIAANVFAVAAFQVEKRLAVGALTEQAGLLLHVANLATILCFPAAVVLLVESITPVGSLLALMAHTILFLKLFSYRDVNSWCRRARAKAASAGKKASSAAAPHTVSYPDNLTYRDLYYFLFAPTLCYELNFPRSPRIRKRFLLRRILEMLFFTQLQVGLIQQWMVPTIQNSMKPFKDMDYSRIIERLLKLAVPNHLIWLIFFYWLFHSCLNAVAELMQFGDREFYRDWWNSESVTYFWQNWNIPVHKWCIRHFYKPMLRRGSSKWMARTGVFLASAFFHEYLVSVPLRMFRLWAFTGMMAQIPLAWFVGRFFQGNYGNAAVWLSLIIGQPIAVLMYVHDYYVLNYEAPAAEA

[35] = Drug distribution in C57BL/6 mouse brain 10 mg/kg, po and measured at 2 hrs post dose by LC-MS/MS analysis; format: ADME, organism-based; conditions: read-out: Ct

Chain of hERG (KCNH2) (Q12809 whole entry): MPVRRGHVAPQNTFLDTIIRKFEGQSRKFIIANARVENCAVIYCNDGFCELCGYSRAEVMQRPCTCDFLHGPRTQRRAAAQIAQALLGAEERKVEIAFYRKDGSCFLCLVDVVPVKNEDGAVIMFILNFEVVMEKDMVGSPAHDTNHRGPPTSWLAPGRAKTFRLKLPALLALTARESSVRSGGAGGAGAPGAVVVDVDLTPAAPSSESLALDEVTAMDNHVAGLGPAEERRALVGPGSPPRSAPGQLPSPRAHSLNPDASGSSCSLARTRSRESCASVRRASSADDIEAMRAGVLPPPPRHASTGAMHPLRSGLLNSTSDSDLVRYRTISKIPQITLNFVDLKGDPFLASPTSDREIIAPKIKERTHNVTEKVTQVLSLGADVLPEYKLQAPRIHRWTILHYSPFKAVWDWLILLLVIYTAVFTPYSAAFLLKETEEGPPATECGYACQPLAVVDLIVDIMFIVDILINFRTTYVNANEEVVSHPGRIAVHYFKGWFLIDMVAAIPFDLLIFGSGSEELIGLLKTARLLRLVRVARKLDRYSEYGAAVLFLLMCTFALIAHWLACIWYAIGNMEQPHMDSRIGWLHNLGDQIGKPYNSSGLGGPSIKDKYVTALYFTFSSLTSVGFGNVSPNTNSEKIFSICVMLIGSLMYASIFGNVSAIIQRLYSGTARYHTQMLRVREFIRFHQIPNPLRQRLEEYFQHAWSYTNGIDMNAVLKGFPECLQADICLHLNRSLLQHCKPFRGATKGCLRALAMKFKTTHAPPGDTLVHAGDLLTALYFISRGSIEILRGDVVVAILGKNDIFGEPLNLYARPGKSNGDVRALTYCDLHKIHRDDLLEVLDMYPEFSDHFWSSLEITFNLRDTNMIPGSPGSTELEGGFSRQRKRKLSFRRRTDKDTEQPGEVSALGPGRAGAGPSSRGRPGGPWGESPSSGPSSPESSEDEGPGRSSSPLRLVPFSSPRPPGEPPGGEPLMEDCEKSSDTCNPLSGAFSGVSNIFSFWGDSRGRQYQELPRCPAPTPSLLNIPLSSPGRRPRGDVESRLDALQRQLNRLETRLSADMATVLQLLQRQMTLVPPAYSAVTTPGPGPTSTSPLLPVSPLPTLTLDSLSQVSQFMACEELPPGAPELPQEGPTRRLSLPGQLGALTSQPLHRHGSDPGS
Chain of CYP2D6 (P10635 whole entry): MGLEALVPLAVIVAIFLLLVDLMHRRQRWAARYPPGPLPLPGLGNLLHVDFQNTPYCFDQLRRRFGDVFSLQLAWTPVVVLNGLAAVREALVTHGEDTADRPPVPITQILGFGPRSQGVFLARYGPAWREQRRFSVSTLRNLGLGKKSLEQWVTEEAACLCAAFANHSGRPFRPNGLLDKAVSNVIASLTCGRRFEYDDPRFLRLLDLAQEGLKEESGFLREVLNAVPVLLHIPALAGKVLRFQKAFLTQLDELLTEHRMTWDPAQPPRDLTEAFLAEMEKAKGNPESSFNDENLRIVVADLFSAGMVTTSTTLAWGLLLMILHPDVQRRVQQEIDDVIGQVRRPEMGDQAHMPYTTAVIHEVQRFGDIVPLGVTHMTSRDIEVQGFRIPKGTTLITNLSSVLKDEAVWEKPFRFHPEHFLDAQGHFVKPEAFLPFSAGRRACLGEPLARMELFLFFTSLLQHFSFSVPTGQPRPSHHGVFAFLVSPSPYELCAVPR

Compound O=C(Nc1ccc(C2CCC3(CC2)CC(C(=O)O)C3)cc1)c1nnc(Nc2ccc(F)c(F)c2)o1 (stereo unspecified) has a concentration at 2 h [1] of 60 nM, a Papp A→B at 1.5 h, 2.5 µM [2] of 4.9 ×10⁻⁶ cm/s and a concentration at 1 h [3] of 470 nM. For the same compound, the remaining at 0.5 h, 1 µM [4] was 95%, the half-life [5] was 3.6 h and the concentration at 8 h [6] was 30 nM. The concentration at 1 h [7] was 5900 nM, the concentration at 8 h [8] was 130 nM and the concentration at 8 h [9] was 17800 nM. It also gave a concentration at 8 h [10] of 360 nM, a remaining at 0.5 h, 1 µM [11] of 100% and a concentration at 1 h [12] of 20 nM. It also gave a Tmax [13] of 0.25 h, an inhibition at 2 h, 30 µM (hERG (KCNH2)) of 16% and an AUC at 24 h [14] of 17 µM·h. The Cmax [15] was 14000 nM, the bioavailability [16] was 30% and the concentration at 2 h [17] was 71600 nM. It also gave a remaining at 0.5 h, 1 µM [18] of 96%, a Tmax [19] of 1 h and a clearance [20] of 34 mL/min/kg. The Vd [21] was 0.53 L/kg, the Cmax [22] was 1400 nM and the concentration at 1 h [23] was 160 nM. For the same compound, the concentration at 2 h [24] was 350 nM, the fraction unbound [25] was 0.02 and the inhibition at 25 µM (CYP2D6) was 10%. It also gave a bioavailability [26] of 100%, a clearance [27] of 6.2 mL/min/kg and an AUC at 24 h [28] of 2.8 µM·h. For the same compound, the half-life [29] was 3.6 h, the fraction unbound [30] was 0.01 and the Vd [31] was 4.4 L/kg. It also gave a concentration at 1 h [32] of 142000 nM and a concentration at 2 h [33] of 1660 nM.
Work on O=C(O)CC1CCC2(CC1)CCC(c1ccc(NC(=O)c3nnc(Nc4ccc(F)c(F)c4)o3)cn1)CC2 (stereo unspecified) yielded a concentration at 2 h [1] of 290 nM, a Papp A→B at 1.5 h, 2.5 µM [2] of 4.7 ×10⁻⁶ cm/s and a concentration at 1 h [3] of 740 nM. It also gave a remaining at 0.5 h, 1 µM [4] of 100%, a half-life [5] of 6.4 h and a concentration at 8 h [6] of 70 nM. The concentration at 1 h [7] was 2760 nM, the concentration at 8 h [8] was 110 nM and the concentration at 8 h [9] was 28000 nM. The concentration at 8 h [10] was 80 nM, the remaining at 0.5 h, 1 µM [11] was 71% and the concentration at 1 h [12] was 20 nM. For the same compound, the Tmax [13] was 0.5 h, the IC50 [34] was 16 nM and the inhibition at 2 h, 30 µM (hERG (KCNH2)) was 26%. The AUC at 24 h [14] was 23.7 µM·h, the Cmax [15] was 3800 nM and the bioavailability [16] was 53%. For the same compound, the concentration at 2 h [17] was 73000 nM, the remaining at 0.5 h, 1 µM [18] was 88% and the Tmax [19] was 1.3 h. For the same compound, the clearance [20] was 21 mL/min/kg, the Vd [21] was 0.5 L/kg and the Cmax [22] was 2600 nM. It also gave a concentration at 1 h [23] of 520 nM, a concentration at 2 h [24] of 470 nM and a fraction unbound [25] of 0.03. It also gave a bioavailability [26] of 9%, a clearance [27] of 1.2 mL/min/kg and an AUC at 24 h [28] of 4.4 µM·h. The half-life [29] was 2.1 h, the fraction unbound [30] was < 0.01 and the Vd [31] was 1.8 L/kg. The concentration at 1 h [32] was 74000 nM, the concentration at 2 h [35] was 60 nM and the concentration at 2 h [33] was 1860 nM.
